In PMC5557796, “Ligand binding modes from low resolution GPCR models and mutagenesis: chicken bitter taste receptor as a test-case” (Scientific Reports, 2017):

What was measured:
ggTas2r1 [1] = target: T1, ggTas2r1 (Gallus gallus, UniProt Q2AB83); test: FLIPR calcium mobilization, Fluo4-AM; type: cell-based; settings: agonist, HEK 293T with Galpha16gust44
T1 construct: gene TAS2R40; full-length receptor with in-frame N-terminal sst3-tag and C-terminal hsv-tag in pcDNA5/FRT; transient in HEK 293T stably expressing chimeric Galpha16gust44
T1 sequence (Q2AB83 1-311): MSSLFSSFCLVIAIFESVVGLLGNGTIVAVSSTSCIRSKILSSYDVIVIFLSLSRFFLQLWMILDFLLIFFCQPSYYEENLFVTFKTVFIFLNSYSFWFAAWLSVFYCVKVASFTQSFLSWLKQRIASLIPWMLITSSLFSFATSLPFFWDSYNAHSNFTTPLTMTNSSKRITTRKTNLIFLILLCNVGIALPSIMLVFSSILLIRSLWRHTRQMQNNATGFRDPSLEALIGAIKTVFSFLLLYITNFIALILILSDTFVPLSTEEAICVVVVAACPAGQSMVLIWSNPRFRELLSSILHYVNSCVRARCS

ggTas2r1 [2] = target: T1, ggTas2r1; test: FLIPR calcium mobilization, Fluo4-AM; type: cell-based; settings: agonist; HEK 293T with Galpha16gust44; 2.5 mM probenecid in dye loading

| Structure (SMILES) | dose-response ΔF/F (ggTas2r1 [1]) | also measured |
| --- | --- | --- |
| O=c1ccc2ccccc2o1 [coumarin] | The small compound coumarin is only a weak agonist for ggTas2r1 |  |
| C=C[C@H]1CN2CC[C@H]1C[C@H]2[C@H](O)c1ccnc2ccc(OC)cc12 [quinine] |  | dose-response ΔF/F (ggTas2r1 [1]; tested as quinine sulfate): subjected to calcium-mobilization assays using different concentrations of quinine sulfate |
| O=C(N[C@H](CO)[C@H](O)c1ccc([N+](=O)[O-])cc1)C(Cl)Cl [chloramphenicol] | at high chloramphenicol concentration the maximal signal amplitude is comparable to the native receptor |  |
| CN(C)CCC(c1ccc(Cl)cc1)c1ccccn1 (stereo not drawn) [chlorpheniramine] | The functional data for receptor constructs stimulated with chlorpheniramine ranges from wild-type like receptor |  |
| OC(CCCN1CCCCC1)(c1ccccc1)c1ccccc1 [diphenidol] | variable decrease in responses compared to the wild-type ggTas2r1 upon stimulation with diphenidol |  |
| C=C[C@H]1CN2CC[C@H]1C[C@@H]2[C@@H](O)c1ccnc2ccc(OC)cc12 [quinidine] |  | threshold concentration (ggTas2r1 [2]): ~ 0.3 µM |
